Assay results reported in patent US12215100B2, “Anticancer compounds” (Pharma Mar, S.A., priority 2018, dated 2025).

Assays:
Type in all cases: cell-based, human
[1] = test system: HT29; assay: SRB colorimetric cytotoxicity assay, HT29; conditions: 72 hours treatment, colorectal adenocarcinoma
From the text: (§1) The aim of this assay is to evaluate the in vitro cytostatic (ability to delay or arrest tumor cell growth) or cytotoxic (ability to kill tumor cells) activity of the samples being tested.
(§2) A colorimetric assay, using sulforhodamine B (SRB) reaction has been adapted to provide a quantitative measurement of cell growth and viability (following the technique described by V. Vichai and K. Kirtikara (2006) Nature Protoc. 1, 1112-1116.)
(§3) This form of assay employs 96-well cell culture microplates. All the cell lines used in this study were obtained from the American Type Culture Collection (ATCC), unless otherwise indicated, and derive from different types of human cancer.
(§4) Cells were maintained in Dulbecco's Modified Eagle Medium (DMEM) (for A549, HT-29 and MDA-MB-231) or RPMI (for PSN-1) supplemented with 10% Fetal Bovine Serum (FBS), 2 mM L-glutamine, 100 U/mL penicillin and 100 U/mL streptomycin at 37° C., 5% CO2 and 98% humidity. For the experiments, cells were harvested from subconfluent cultures using trypsinization and resuspended in fresh medium before counting and plating.
(§5) Cells were seeded in 96 well microtiter plates, at 5×10^3 cells per well in aliquots of 150 μL, and allowed to attach to the plate surface for 18 hours (overnight) in drug free medium. After that, one control (untreated) plate of each cell line was fixed (as described below) and used for time zero reference value. […] After 72 hours treatment, the antitumor effect was measured by using the SRB methodology: Briefly, cells were washed twice with PBS, fixed for 15 min in 1% glutaraldehyde solution at room temperature, rinsed twice in PBS, and stained in 0.4% SRB solution for 30 min at room temperature. Cells were then rinsed several times with 1% acetic acid solution and air-dried at room temperature. SRB was then extracted in 10 mM trizma base solution and the absorbance measured in an automated spectrophotometric plate reader at 490 nm. Effects on cell growth and survival were estimated by applying the NCI algorithm (Boyd M R and Pauli K D. Drug Dev Res. 1995, 34, 91-104).
(§6) Using the mean±SD of triplicates, a dose-response curve was automatically generated using nonlinear regression analysis to a 4-parameter logistic curve. Three reference parameters were calculated (NCI algorithm) by automatic interpolation: GI50=compound concentration that produces 50% cell growth inhibition, as compared to control cultures; TGI=total cell growth inhibition (cytostatic effect), as compared to control cultures, and LC50=compound concentration that produces 50% net cell killing (cytotoxic effect).

[2] = test system: A549; assay: SRB colorimetric cytotoxicity assay, A549; conditions: 72 hours treatment, lung carcinoma (NSCLC)
From the text: as §1, §2, §3, §4, §5, §6

[3] = test system: MDA-MB-231; assay: SRB colorimetric cytotoxicity assay, MDA-MB-231; conditions: 72 hours treatment, breast adenocarcinoma
From the text: as §1, §2, §3, §4, §5, §6

[4] = test system: PSN-1; assay: SRB colorimetric cytotoxicity assay, PSN-1; conditions: 72 hours treatment, pancreatic adenocarcinoma
From the text: as §1, §2, §3, §4, §5, §6

Structure (SMILES)	GI50 ([1]; Homo sapiens, HT-29, 72 h) [nM]	GI50 ([2]; Homo sapiens, A549, 72 h) [nM]	GI50 ([3]; Homo sapiens, MDA-MB-231, 72 h) [nM]	GI50 ([4]; Homo sapiens, PSN1, 72 h) [nM]	GI50 [1] [nM]	GI50 [2] [nM]	GI50 [3] [nM]	GI50 [4] [nM]
C=CCOc1cc([C@@H](CCC)NC(=O)[C@]2(C)CSC(/C(C)=N/OCCCN)=N2)oc(=O)c1 (stereo in doubt) [Compound 153]	3.38	3.98	4.32	3.98	–	–	–	–
C=CCOc1cc([C@@H](CCC)NC(=O)[C@]2(C)CSC(/C(C)=N/OCCCN)=N2)oc(=O)c1 (stereo in doubt) [Compound 154]	–	–	–	–	5.59	4.79	6.79	7.78
C#CCOc1cc([C@@H](CCC)NC(=O)[C@]2(C)CSC(/C(C)=N/OCCCN)=N2)oc(=O)c1 (stereo in doubt) [Compound 156]	2.43	1.28	2.6	2.43	–	–	–	–
CCC[C@@H](NC(=O)[C@]1(C)CSC(/C(C)=N/OCCCN)=N1)c1cc(OCC2CC2)cc(=O)o1 (stereo in doubt) [Compound 158]	6.06	5.43	12.1	6.27	–	–	–	–
CCC[C@@H](NC(=O)[C@]1(C)CSC(/C(C)=N/O)=N1)c1cc(OC)cc(=O)o1 [Compound 1]	14.4	11.5	34.1	28.8	–	–	–	–
CCC[C@@H](NC(=O)[C@]1(C)CSC(/C(C)=N\O)=N1)c1cc(OC)cc(=O)o1 [Compound 1a]	152	144	204	341	–	–	–	–
CCC[C@@H](NC(=O)[C@]1(C)CSC(/C(C)=N/OC)=N1)c1cc(OC)cc(=O)o1 [Compound 2]	212	253	430	329	–	–	–	–
CCC[C@@H](NC(=O)[C@]1(C)CSC(C(C)=O)=N1)c1cc(OC)cc(=O)o1 [Compound 42]	8730	24600	4640	5190	–	–	–	–
CCC[C@@H](NC(=O)[C@]1(C)CSC(C(C)(OCC)OCC)=N1)c1cc(OCC)cc(=O)o1 [Compound 46]	2180	2420	1520	4620	–	–	–	–
CCCCCCCOc1cc([C@@H](CCC)NC(=O)[C@]2(C)CSC(C(C)(OCC)OCC)=N2)oc(=O)c1 [Compound 48]	2290	3430	2290	2100	–	–	–	–
CCCCCCCCCCCCCCCCCOc1cc([C@@H](CCC)NC(=O)[C@]2(C)CSC(C(C)(OCC)OCC)=N2)oc(=O)c1 [Compound 49]	932	1340	1500	1460	–	–	–	–
C=CCOc1cc([C@@H](CCC)NC(=O)[C@]2(C)CSC(C(C)(OCC)OCC)=N2)oc(=O)c1 [Compound 50]	514	643	536	814	–	–	–	–
C#CCOc1cc([C@@H](CCC)NC(=O)[C@]2(C)CSC(C(C)(OCC)OCC)=N2)oc(=O)c1 [Compound 51]	215	344	323	366	–	–	–	–
CCC[C@@H](NC(=O)[C@]1(C)CSC(C(C)(OCC)OCC)=N1)c1cc(OCC2CC2)cc(=O)o1 [Compound 52]	1210	1270	1290	1770	–	–	–	–
CCCCCCCOc1cc([C@@H](CCC)NC(=O)[C@]2(C)CSC(C(C)=O)=N2)oc(=O)c1 [Compound 61]	1400	1840	1440	1730	–	–	–	–
CCCCCCCCCCCCCCCCCOc1cc([C@@H](CCC)NC(=O)[C@]2(C)CSC(C(C)=O)=N2)oc(=O)c1 [Compound 62]	1100	1610	1690	1640	–	–	–	–
C=CCOc1cc([C@@H](CCC)NC(=O)[C@]2(C)CSC(C(C)=O)=N2)oc(=O)c1 [Compound 63]	510	815	484	408	–	–	–	–
C#CCOc1cc([C@@H](CCC)NC(=O)[C@]2(C)CSC(C(C)=O)=N2)oc(=O)c1 [Compound 64]	61.5	99.9	53.8	71.7	–	–	–	–
CCC[C@@H](NC(=O)[C@]1(C)CSC(C(C)=O)=N1)c1cc(OCC2CC2)cc(=O)o1 [Compound 65]	1080	1890	1030	1250	–	–	–	–

Structure (SMILES)	GI50 ([1]; Homo sapiens, HT-29, 72 h) [nM]	GI50 ([2]; Homo sapiens, A549, 72 h) [nM]	GI50 ([3]; Homo sapiens, MDA-MB-231, 72 h) [nM]	GI50 ([4]; Homo sapiens, PSN1, 72 h) [nM]	GI50 [1] [nM]	GI50 [2] [nM]	GI50 [3] [nM]	GI50 [4] [nM]
C=Cc1cc([C@@H](CCC)NC(=O)[C@]2(C)CSC(C(C)=O)=N2)oc(=O)c1 [Compound 68]	9100	11000	6620	4690	–	–	–	–
COc1cc([C@@H](CC(C)C)NC(=O)[C@]2(C)CSC(/C(C)=N/O)=N2)oc(=O)c1 [Compound 69]	1590	2200	1620	1520	–	–	–	–
COc1cc([C@@H](CC(C)C)NC(=O)[C@]2(C)CSC(/C(C)=N\O)=N2)oc(=O)c1 [Compound 69a]	3790	5060	4550	6320	–	–	–	–
CCC[C@@H](NC(=O)[C@]1(C)CSC(/C(C)=N/O)=N1)c1cc(OCC)cc(=O)o1 [Compound 70]	14.9	14.4	23.8	14.9	–	–	–	–
CCCCOc1cc([C@@H](CCC)NC(=O)[C@]2(C)CSC(/C(C)=N/O)=N2)oc(=O)c1 [Compound 71]	7.56	7.08	14.4	10.4	–	–	–	–
CCCCOc1cc([C@@H](CCC)NC(=O)[C@]2(C)CSC(/C(C)=N\O)=N2)oc(=O)c1 [Compound 71a]	17	16.5	35.4	30.7	–	–	–	–
CCCCCCCOc1cc([C@@H](CCC)NC(=O)[C@]2(C)CSC(/C(C)=N/O)=N2)oc(=O)c1 [Compound 72]	30.1	25.8	30.1	21.5	–	–	–	–
CCCCCCCOc1cc([C@@H](CCC)NC(=O)[C@]2(C)CSC(/C(C)=N\O)=N2)oc(=O)c1 [Compound 72a]	183	110	103	125	–	–	–	–
CCCCCCCCCCCCCCCCCOc1cc([C@@H](CCC)NC(=O)[C@]2(C)CSC(/C(C)=N/O)=N2)oc(=O)c1 [Compound 73]	396	380	330	347	–	–	–	–
CCCCCCCCCCCCCCCCCOc1cc([C@@H](CCC)NC(=O)[C@]2(C)CSC(/C(C)=N\O)=N2)oc(=O)c1 [Compound 73a]	62.7	64.4	66	59.4	–	–	–	–
C=CCOc1cc([C@@H](CCC)NC(=O)[C@]2(C)CSC(/C(C)=N/O)=N2)oc(=O)c1 [Compound 74]	2.94	4.17	4.91	3.19	–	–	–	–
C=CCOc1cc([C@@H](CCC)NC(=O)[C@]2(C)CSC(/C(C)=N\O)=N2)oc(=O)c1 [Compound 74a]	7.61	8.1	9.82	12.5	–	–	–	–
C#CCOc1cc([C@@H](CCC)NC(=O)[C@]2(C)CSC(/C(C)=N/O)=N2)oc(=O)c1 [Compound 75]	0.962	1.01	1.38	1.18	–	–	–	–
C#CCOc1cc([C@@H](CCC)NC(=O)[C@]2(C)CSC(/C(C)=N\O)=N2)oc(=O)c1 [Compound 75a]	1.18	2.12	2.71	2	–	–	–	–
CCC[C@@H](NC(=O)[C@]1(C)CSC(/C(C)=N/O)=N1)c1cc(OCC2CC2)cc(=O)o1 [Compound 76]	3.8	3.56	3.8	3.08	–	–	–	–
CCC[C@@H](NC(=O)[C@]1(C)CSC(/C(C)=N\O)=N1)c1cc(OCC2CC2)cc(=O)o1 [Compound 76a]	4.27	3.8	4.51	4.51	–	–	–	–
CCC[C@@H](NC(=O)[C@]1(C)CSC(/C(C)=N/O)=N1)c1cc(N(CC)CC)cc(=O)o1 [Compound 77]	1180	2150	1960	2370	–	–	–	–
CCC[C@@H](NC(=O)[C@]1(C)CSC(/C(C)=N/O)=N1)c1cc(C)cc(=O)o1 [Compound 78]	43.8	24.9	43.8	32.8	–	–	–	–
